How the values were obtained:
[1] = tested on: CTGF; assay: CTGF mRNA levels in mesangial cells by Northern Blot, Phosphor Imager quantification; assay type: cell-based, human
Text: CTGF, is a 38 kD cysteine-rich secreted peptide known to modulate ECM production in some extrarenal cell types. In Example 1, SSH analysis identified a cDNA fragment of 250 bp which was identical to bases 814-1061 of the human CTGF cDNA. Induction of CTGF mRNA expression in primary human mesangial cells cultured in high glucose was investigated by Northern Blotting as shown in FIG. 1.
A 2.4 kb band was detected following hybridisation with the CTGF probe. All of the values were normalised to GAPDH levels and the results are representative of three independent experiments.
To assess the role of TGF-β1 as a stimulus for CTGF expression in response to high glucose, cells were incubated in either 5 mM glucose or 30 mM glucose plus 1 μl/ml anti-TGF-β1 antibody for seven days with three changes of medium. Cells were serum starved for 24 hr in RPMI 1640 and 0.5% FBS. 10 ng/ml TGF-β1 Calbiochem) or 10 ng/ml TGF-β1 preadsorbed with 1 μg/ml neutralising anti-TGF-β1 polyclonal antibody were subsequently added for 24 hr.
The role of PKC on CTGF expression in response to high glucose was investigated by culturing the mesangial cells in either 5 mM, 30 mM glucose or 30 mM glucose and the PKC inhibitor GF 102903X.
FIG. 7 is an autoradiograph of CTGF mRNA levels analysed by Northern Blot and depicts the results obtained when mesangial cells were exposed to TGF-β1 (10 ng/ml) for 24 hr in the presence (lane 3) and absence (lane 2) of anti-TGF-β1 neutralising antibody (1 μg/ml). Cells cultured in RPMI 1640 and 0.5% FBS for 24 hr served as control (lane 1). A 2.4 kb band was detected following hybridisation to the CTGF probe. The blot was stripped and reprobed with GAPDH. The relative amount of CTGF mRNA as estimated by Phosphor Imager quantification (FIG. 8). Values were normalised to GAPDH levels and the results are representative of two independent experiments.
(§1) FIG. 9 is an autoradiograph of CTGF mRNA levels analysed by Northern Blot and depicts the results obtained when mesangial cells were exposed to 5 mM glucose (lane 1), 30 mM glucose (lane 2) and 30 mM glucose in the presence of anti-TGF-β1 neutralising antibodies (1 μg/ml) (lane 3) for seven days. A 2.4 kb band was detected following hybridisation to the CTGF probe. The blot was stripped and probed with GAPDH. The relative amount of CTGF MRNA as estimated by Phosphor Imager quantification (FIG. 10). […]
as §1, with “11” for “9”, “PKC inhibitor GF102903X (10 μM)” for “the presence of anti-TGF-β1 neutralising antibodies (1 μg/ml)”, “four” for “seven”, “The blot was stripped and probed with GAPDH.” left out, “rnRNA” for “MRNA”, “12).” for “10).”

[2] = tested on: primary human mesangial cells; assay: Northern Blot of genes differentially induced in mesangial cells cultured in high glucose or mannitol (Table 1); assay type: cell-based; parameters: key to Differential Expression of IHG-1 mRNA: *: detected in mesangial cells cultured in 5 mM glucose+25 mM mannitol and 30 mM glucose, but not in 5 mM glucose; conditions: 25 mM mannitol + 5 mM glucose, relative to 5 mM glucose
Procedure: Primary human mesangial cells were cultured as previously reported (Brady, H. R., et al. (1992) Kidney Int. 42, 480-487 and Denton, M. D., et al. (1991) Am. J. Physiol. 261, F1071-F1079). Cells (passage 7-11) were maintained in medium (Clonetics) containing either 5 mM or 30 mM D-glucose for 7 days. Culture medium was replenished three times during this period to maintain glucose levels in the desired range. To control for the effects of hyperosmolarity, mesangial cells were cultured in media containing 5 mM glucose supplemented with 25 mM mannitol. […] Northern Blots performed using formaldehyde denaturation according to standard protocols and quantitated using a Phosphor Imager (Biorad) confirmed differential expression of fifteen of the sixteen subcloned fragments as indicated in Table 1. ^c refers to the differential expression of each gene based on Northern Blot analysis of primary human mesangial cells cultured under indicated conditions relative to expression in cells cultured in 5 mM glucose. Values were obtained by Phosphor-Imaging and were normalised by comparison with glyceraldehyde-3-phosphate dehydrogenase (GAPDH) (*, detected in mesangial cells cultured in 5 mM glucose+25 mM mannitol and 30 mM glucose, but not in 5 mM glucose, fold expression is degree of expression relative to that found in 5 mM glucose). Within a diabetic milieu, high glucose levels may perturb cellular function through glucose-specific actions or by increasing the osmolarity of extracellular fluids. The role of hyperosmolarity as a mediator of gene induction by high glucose was assessed by comparing mRNA levels, as determined by Northern Blot, in cells cultured in either 30 mM glucose or in 5 mM glucose supplemented with 25 mM mannitol. […] High glucose and mannitol-induced hyperosmolarity afforded equivalent induction of the other products.

[3] = tested on: gremlin; assay: Gremlin mRNA levels in mesangial cells by Northern Blot; assay type: cell-based; conditions: human recombinant TGF-β1 10 ng/ml, 24 h, serum restricted mesangial cells
Procedure: A) Primary cultures of human mesangial cells were propagated as described in Example 1, except that the medium was supplemented with 5% FBS. Treatment of cultures with glucose was carried out as described in Example 1. […]
Northern Blot analysis as described further below was performed on RNA extracted from mesangial cells grown in either 5 mM (‘normal’) or 30 mM (‘high’) glucose using the ORF of gremlin and IHG-2 probes. Both probes detected a 2-fold increase in gene expression under high glucose conditions as depicted in FIG. 16.
Northern Blots were performed using formaldehyde denaturation according to standard protocols and quantitated using a phosphorimager (Biorad). PCR products used to generate the probes for northern analysis were amplified using primers for the open reading frame (ORF) of gremlin (sense: […] (SEQ ID NO: 17); antisense […] (SEQ ID NO: 18)), and for IHG-2 (sense: […] (SEQ ID NO 19); antisense: […] (SEQ ID NO: 20)). Fibronectin and GAPDH probes were generated as described in Example 2
As indicated above, both high ambient glucose concentrations and cyclic mechanical strain provoke TGF-β1 production by mesangial cells in vitro and TGF-β1 appears to be a major stimulus for mesangial matrix accumulation in diabetic glomeruli in vivo. […]

[4] = tested on: mesangial cells; assay: Effect of rhCTGF on mesangial cell matrix production (RT-PCR); assay type: cell-based, human; conditions: rhCTGF 8 ng/ml, 24 hr, serum starved mesangial cells
Procedure: To investigate the direct effects of CTGF up-regulation on matrix production, in particular the effect on collagens I and IV and fibronectin, mesangial cells were incubated with recombinant CTGF protein.
Mesangial cells were serum starved for 24 hr in RPMI 1640 medium supplemented with 0.5 % fetal bovine serum (FBS) and then exposed to rhCTGF (8 ng/ml) (a generous gift from Dr. Gary Grotendorst) for 24 hr (Kreisberg, J. I. and Ayo, S. H. (1993). Kidney Int. 43, 109-113). Total RNA was extracted and chromosomal DNA was removed using DNase 1 (Gibco-BRL). Equal amounts of cDNA were subsequently amplified by PCR using specific primers for GAPDH (Gen/EMBL accession no. AJ005371, sense: […] (SEQ ID NO: 7); antisense: […] (SEQ ID NO: 8), Collagen I (Gen/EMBL accession no. X55525, sense: […] (SEQ ID NO: 9); antisense: […] (SEQ ID NO: 10)), Collagen IV (Gen/EMBL accession no. M11315, sense: […] (SEQ ID NO: 11); antisense: […] (SEQ ID NO: 12) and fibronectin (Gen/EMBL accession no. X0276 1, sense: CGAAATCACAGCCAGTAG (SEQ ID NO. 13), antisense: ATCACATCCACACGGTAG (SEQ ID NO: 14)).
FIG. 3 depicts ethidium-stained panels of a 2% (w/v) agarose gel containing 10 μl of each PCR reaction after electrophoresis.

## CN(C)CCCn1cc(C2=C(c3c[nH]c4ccccc34)C(=O)NC2=O)c2ccccc21 [GF102903X]
[1]; 30 mM glucose, four days, inhibitor 10 μM
  effect on high glucose-induced CTGF expression: partial inhibition
[1]; TGF-β1 10 ng/ml, 24 hr, antibody 1 μg/ml, GF102903X data not shown
  effect on TGF-β1-induced CTGF expression: without effect

## OC[C@@H](O)[C@@H](O)[C@H](O)[C@H](O)CO [mannitol]
[1]; 25 mM mannitol + 5 mM glucose versus 30 mM glucose, in vitro
  mesangial cell CTGF expression compared with high glucose: less mesangial cell CTGF expression in vitro than high glucose
[2]
  Differential Expression of IHG-1 mRNA: *
[2]; normalised to GAPDH
  Differential Expression of ARP3 mRNA: 1.0-fold
  Differential Expression of CAP mRNA: 1.7-fold
  Differential Expression of CTGF mRNA: 1.5-fold
  Differential Expression of Caldesmon mRNA: 2.8-fold
  Differential Expression of Fibronectin mRNA: 1.5-fold
  Differential Expression of IHG-2 mRNA: 2.0-fold
  Differential Expression of MRLC mRNA: 1.6-fold
  Differential Expression of PAI-1 mRNA (2.0 kb): 1.0-fold
  Differential Expression of PAI-1 mRNA (3.0 kb): 2.0-fold
  Differential Expression of Profilin mRNA: 2.3-fold
  Differential Expression of RBM3 mRNA: 1.4-fold
  Differential Expression of T-plastin mRNA: 1.8-fold
  Differential Expression of TCTP mRNA: 2.5-fold
  Differential Expression of Thrombospondin mRNA: 8.0-fold
  Differential Expression of Ubiquitin mRNA: 1.7-fold

## TGF-β1: human recombinant transforming growth factor β1 (Calbiochem)
[3]
  gremlin mRNA levels: augmented
[1]; TGF-β1 10 ng/ml, 24 hr, serum starved mesangial cells
  induction of CTGF mRNA levels: potent inducer

B1: rhCTGF: recombinant human connective tissue growth factor protein (protein, UniProt P29279 27-349, looked up)
CCN family member 2: QNCSGPCRCPDEPAPRCPAGVSLVLDGCGCCRVCAKQLGELCTERDPCDPHKGLFCHFGSPANRKIGVCTAKDGAPCIFGGTVYRSGESFQSSCKYQCTCLDGAVGCMPLCSMDVRLPSPDCPFPRRVKLPGKCCEEWVCDEPKDQTVVGPALAAYRLEDTFGPDPTMIRANCLVQTTEWSACSKTCGMGISTRVTNDNASCRLEKQSRLCMVRPCEADLEENIKKGKKCIRTPKISKPIKFELSGCTSMKTYRAKFCGVCTDGRCCTPHRTTTLPVEFKCPDGEVMKKNMMFIKTCACHYNCPGDNDIFESLYYRKMYGDMA
[4]
  mesangial cell collagens I and IV and fibronectin mRNA (RT-PCR): up-regulates
